Literature values, collected in patent publication US20030191121A1, “Piperazine carboxamide intermediates of HIV protease inhibitors and processes for their preparation” (priority 2001, published 2003).

Test system: HIV
Settings: HIV-infected patients, in combination with nucleoside reverse transcriptase inhibitors

In the case of `CC(C)(C)NC(=O)[C@@H]1CN(Cc2cccnc2)CCN1C[C@@H](O)C[C@@H](Cc1ccccc1)C(=O)N[C@H]1c2ccccc2C[C@H]1O` [Indinavir, indinavir], the “reducing HIV viral loads and increasing CD4 cell counts” value is given as “highly effective”.
